Source: patent publication US20060100146A1, “AWAT-related methods and articles” (priority 2004, published 2006)
Values joined by “and” are separate entries in the source; they are usually repeats but may differ in a detail not shown here. Equal values may be shown once.

T1: human AWAT1 (DGA2) (Homo sapiens, UniProt Q58HT5)
T1 construct: The full length DGA2 was sub cloned into the EcoRI and NotI sites of the pRS423-GP vector; made in house; host or cells: Saccharomyces cerevisiae SCY2056 (dga1Δ lro1Δ are2), galactose-inducible pRS423-GP vector; microsomes used
T1 sequence (Q58HT5 1-328): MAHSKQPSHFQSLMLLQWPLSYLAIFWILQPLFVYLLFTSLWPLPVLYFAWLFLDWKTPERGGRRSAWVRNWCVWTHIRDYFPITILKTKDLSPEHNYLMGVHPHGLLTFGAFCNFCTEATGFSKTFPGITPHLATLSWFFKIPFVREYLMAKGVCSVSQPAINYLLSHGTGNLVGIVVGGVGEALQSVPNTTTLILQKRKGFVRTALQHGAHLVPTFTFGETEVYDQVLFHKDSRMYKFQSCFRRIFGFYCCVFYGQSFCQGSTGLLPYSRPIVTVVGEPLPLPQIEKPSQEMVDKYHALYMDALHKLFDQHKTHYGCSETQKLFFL

T2: human AWAT2 (hDC4) (Homo sapiens, UniProt Q6E213)
T2 construct: The full-length hDC4 was then sub cloned into the EcoRI site of the pRS423-GP vector; made in house; host or cells: Saccharomyces cerevisiae SCY2056 (dga1Δ lro1Δ are2), galactose-inducible pRS423-GP vector; microsomes used
T2 sequence (Q6E213 1-333): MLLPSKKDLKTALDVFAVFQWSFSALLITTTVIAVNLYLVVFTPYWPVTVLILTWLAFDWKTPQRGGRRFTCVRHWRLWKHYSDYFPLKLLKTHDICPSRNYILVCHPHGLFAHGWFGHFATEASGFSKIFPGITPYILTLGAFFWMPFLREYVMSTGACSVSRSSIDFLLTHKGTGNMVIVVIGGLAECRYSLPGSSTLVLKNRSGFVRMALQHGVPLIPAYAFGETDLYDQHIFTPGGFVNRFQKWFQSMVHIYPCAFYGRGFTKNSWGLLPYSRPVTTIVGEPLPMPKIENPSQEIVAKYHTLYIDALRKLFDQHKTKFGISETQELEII


Legend:
[1] = biological target: T1, human AWAT1 (DGA2); test: In vitro AWAT substrate specificity assay, AWAT1 microsomes; assay type: biochemical; details: for Activity of AWAT1 (DGA2) towards various wax alcohols / Activity of AWAT1 (DGA2) towards various acyl-CoAs: 20 μg microsomes, wax ester formed, vector control removed, mean +/- Std. dev., triplicate; for Activity of AWAT1 (DGA2) towards various wax alcohols: [14C]oleoyl-CoA as acyl donor; for Activity of AWAT1 (DGA2) towards various acyl-CoAs: [14C]cetyl alcohol as acyl acceptor
Procedure: (§1) Acyl-CoA wax alcohol acyltransferase (AWAT) assays were performed as above with the following exceptions: 200 μM cetyl alcohol (unlabeled or [^14C]-labeled 10,000 dpm/nmol) was substituted for DAG, oleoyloleate was used as carrier, and reactions were incubated for 20 min in a final volume of 250 μl. After separation by TLC, the spot corresponding to wax ester was cut out and counted. For alcohol and acyl-CoA substrate specificity studies, microsomal preparations from DGA2 (20 μg) and hDC4 (10 μg) were used. Kill reactions and vector controls were included for all experiments. The various wax alcohols and acyl-Co A's were substituted for cetyl alcohol or oleoyl Co A at the concentrations specified above. Activity is presented as pmol/min/mg protein.
(§2) In vitro AWAT assays were performed using microsomal preparations from TG null yeast strains transformed with human AWAT1 (DGA2), AWAT2 (hDC4) or a vector control harboring no insert. AWAT1 (20 μg) and AWAT2 (10 μg) microsomes were assayed as described under Experimental Procedures. Activity is in pmol of wax ester formed per min/mg protein, expressed as a mean±Std. dev. from a representative experiment performed in triplicate. Vector control background has been removed. In vitro determination of alcohol and acyl-CoA substrate specificities were performed with [^14C]oleoyl-CoA and the indicated alcohols or [^14C]cetyl alcohol and the indicated acyl-CoA donors (Table 3A and 3B, respectively). Kill reactions were included for all experiments.

[2] = biological target: T2, human AWAT2 (hDC4); test: In vitro AWAT substrate specificity assay, AWAT2 microsomes; assay type: biochemical; details: for Activity of AWAT2 (hDC4) towards various wax alcohols / Activity of AWAT2 (hDC4) towards various acyl-CoAs: 10 μg microsomes, wax ester formed, vector control removed, mean +/- Std. dev., triplicate; for Activity of AWAT2 (hDC4) towards various wax alcohols: [14C]oleoyl-CoA as acyl donor; for Activity of AWAT2 (hDC4) towards various acyl-CoAs: [14C]cetyl alcohol as acyl acceptor
Procedure: as §1, §2

[3] = test system: TAG formation from dioleoylglycerol and [14C]oleoyl-CoA; test: In vitro DGAT (diacylglycerol esterification) assay in yeast microsomes; assay type: biochemical; details: microsomes from TG-null yeast expressing the human enzyme; dioleoylglycerol + [14C]oleoyl-CoA; TAG formed; vector control subtracted; mean +/- Std. dev., 3 replicate experiments
Procedure: (§3) A dilute inoculation of each strain into 500 mL of SC-His+2% galactose+1% raffinose was grown overnight at 30° C. into log phase. Cells were washed and lysed, and microsomes were prepared from a 100,000 g spin, as previously described (39). Protein concentrations were determined (40) and diacylglycerol esterification assays were performed as described previously (17,19,41). In brief, microsomes (100 μg) were preincubated for 5 min at 37° in 100 mM TRIS, pH 7.5 containing 0.25 M sucrose, 1 mM EDTA, 10 mM MgCl2, 20 μM fatty acid free BSA, 160 μM dioleoylglycerol (in 5 μl acetone, final volume 200 μl). The reaction was initiated by the addition of [^14C]oleoyl-CoA (10-20,000 dpm/nmol, 40 μM) and stopped after 10 min by the addition of 4 ml of chloroform:methanol (2:1 v/v). Carrier TAG (10 μg) and internal standard ([^3H]triolein, 30,000 dpm) were added followed by 0.8 ml water to separate phases. The lower chloroform layer containing the lipids was removed, evaporated to dryness, resuspended in 50 μl chloroform and individual lipid classes separated on Varian chromatography paper using a hexane:diethyl ether:acetic acid (170:30:1 v/v) mobile phase. The spot corresponding to TG was cut out and counted.
(§4) Microsomes from TG-null yeast strains transformed with human DGAT2, DGA2, hDC3, or hDC4 were incubated in the presence of dioleoylglycerol or cetyl alcohol and [^14C]oleoyl-CoA and assayed for esterification as described in Experimental Procedures. Data are expressed as pmol of neutral lipid (TAG or Wax ester) formed per min/mg protein as a mean±Std. dev. DGAT activities are from 3 replicate experiments and AWAT activities are from a representative experiment performed in triplicate. Background levels to the assay from strains transformed with vector control have been subtracted.

[4] = test system: wax ester formation from cetyl alcohol and oleoyl-CoA; test: In vitro AWAT (acyl-CoA wax alcohol acyltransferase) assay in yeast microsomes; assay type: biochemical, human
Procedure: as §3, §1, §4

[5] = [14C]cetyl alcohol rather than radiolabeled oleoyl CoA as monitor of ester formation
[6] = microsomes from TG-null yeast expressing the human enzyme, cetyl alcohol + [14C]oleoyl-CoA, wax ester formed, vector control subtracted, mean +/- Std. dev., triplicate

| Activity of AWAT1 (DGA2) towards various wax alcohols [1] | Activity of AWAT2 (hDC4) towards various wax alcohols [2] | Activity of AWAT1 (DGA2) towards various acyl-CoAs [1] | Activity of AWAT2 (hDC4) towards various acyl-CoAs [2] | Molecule | further results |
| --- | --- | --- | --- | --- | --- |
| 22 +/− 4 pmol/min/mg protein | 27 +/− 4 pmol/min/mg protein | – | – | CCCCCCCCCCCCCCCCCCCCO [Arachidyl C-20, arachidyl alcohol] | Utilization by AWAT1 relative to decyl alcohol ([1]; oleoyl CoA as acyl donor): about 5% |
| 419 +/− 180 pmol/min/mg protein | −50 +/− 277 pmol/min/mg protein | – | – | CCCCCCCCCCO [Decyl C-10, decyl alcohol] | AWAT2 activity using the alcohol (in words) ([2]; oleoyl CoA as acyl donor): no activity |
| – | – | 390 +/− 121 pmol/min/mg protein | 524 +/− 164 pmol/min/mg protein | CCCCCCCCCCCCCCCC(=O)SCCNC(=O)CCNC(=O)[C@H](O)C(C)(C)COP(=O)(O)OP(=O)(O)OC[C@H]1O[C@@H](n2cnc3c(N)ncnc32)[C@H](O)[C@@H]1OP(=O)(O)O [Palmitoyl C-16] | – |
| – | – | 656 +/− 39 pmol/min/mg protein | 549 +/− 38 pmol/min/mg protein | CCCCCCCCCCCCCCCCCC(=O)SCCNC(=O)CCNC(=O)[C@H](O)C(C)(C)COP(=O)(O)OP(=O)(O)OC[C@H]1O[C@@H](n2cnc3c(N)ncnc32)[C@H](O)[C@@H]1OP(=O)(O)O [Stearoyl C-18, stearoyl CoA] | – |
| 27 +/− 5 pmol/min/mg protein | 138 +/− 24 pmol/min/mg protein | – | – | CCCCCCCCCCCCCCCCCCO [Stearyl C-18] | – |

More lines, now with the values behind:

| Molecule | Activity of AWAT1 (DGA2) towards various wax alcohols [1] | Activity of AWAT2 (hDC4) towards various wax alcohols [2] | Activity of AWAT1 (DGA2) towards various acyl-CoAs [1] | Activity of AWAT2 (hDC4) towards various acyl-CoAs [2] | further results |
| --- | --- | --- | --- | --- | --- |
| CCCCCCCCCCCCCCCCO [Cetyl (Palmityl) C-16, cetyl alcohol] | 83 +/− 6 pmol/min/mg protein | 665 +/− 54 pmol/min/mg protein | – | – | – |
| CCCCCCCC/C=C\CCCCCCCC(=O)SCCNC(=O)CCNC(=O)[C@H](O)C(C)(C)COP(=O)(O)OP(=O)(O)OC[C@H]1O[C@@H](n2cnc3c(N)ncnc32)[C@H](O)[C@@H]1OP(=O)(O)O [Oleoyl C-18:1, oleoyl CoA] | – | – | 113 +/− 7 pmol/min/mg protein | 1232 +/− 349 pmol/min/mg protein | Utilization by AWAT1 relative to stearoyl CoA (C18:0) ([1]; cetyl alcohol as acyl acceptor): 20% |
| CCCCCCCC/C=C\CCCCCCCCO [Oleyl C-18:1] | 247 +/− 23 pmol/min/mg protein | 892 +/− 106 pmol/min/mg protein | – | – | – |
| CCCCCC/C=C\CCCCCCCC(=O)SCCNC(=O)CCNC(=O)[C@H](O)C(C)(C)COP(=O)(O)OP(=O)(O)OC[C@H]1O[C@@H](n2cnc3c(N)ncnc32)[C@H](O)[C@@H]1OP(=O)(O)O [Palmitoleoyl C-16:1, palmitoleoyl CoA] | – | – | −20 +/− 25 pmol/min/mg protein | 1125 +/− 220 pmol/min/mg protein | AWAT1 activity using the acyl-CoA (in words) ([1]; cetyl alcohol as acyl acceptor): no activity |
| CCCCCC/C=C\CCCCCCCCO [Palmitoleyl C-16:1] | 184 +/− 29 pmol/min/mg protein | 582 +/− 117 pmol/min/mg protein | – | – | – |
| DGA2: acyl-CoA wax alcohol acyltransferase 1, synonym diacyl-glycerol acyltransferase 2; human enzyme expressed in yeast microsomes (protein, UniProt Q58HT5 1-328, looked up, yeast microsomes, acyl-CoA wax alcohol acyltransferase 1, synonym diacyl-glycerol acyltransferase 2; human enzyme expressed in yeast microsomes) Acyl-CoA wax alcohol …: MAHSKQPSHFQSLMLLQWPLSYLAIFWILQPLFVYLLFTSLWPLPVLYFAWLFLDWKTPERGGRRSAWVRNWCVWTHIRDYFPITILKTKDLSPEHNYLMGVHPHGLLTFGAFCNFCTEATGFSKTFPGITPHLATLSWFFKIPFVREYLMAKGVCSVSQPAINYLLSHGTGNLVGIVVGGVGEALQSVPNTTTLILQKRKGFVRTALQHGAHLVPTFTFGETEVYDQVLFHKDSRMYKFQSCFRRIFGFYCCVFYGQSFCQGSTGLLPYSRPIVTVVGEPLPLPQIEKPSQEMVDKYHALYMDALHKLFDQHKTHYGCSETQKLFFL | – | – | – | – | DGAT Activity [3]: 7.8 +/− 3.2 pmol/min/mg protein; AWAT Activity [4, 5]: 113 pmol/min/mg; AWAT Activity [4, 6]: 31.7 pmol/min/mg protein and 31.7 +/− 17.4 pmol/min/mg protein |
| hDC4: acyl-CoA wax alcohol acyltransferase 2, synonym human DGAT candidate gene 4; human enzyme expressed in yeast microsomes (protein, UniProt Q6E213 1-333, looked up, yeast microsomes, acyl-CoA wax alcohol acyltransferase 2, synonym human DGAT candidate gene 4; human enzyme expressed in yeast microsomes) Acyl-CoA wax alcohol …: MLLPSKKDLKTALDVFAVFQWSFSALLITTTVIAVNLYLVVFTPYWPVTVLILTWLAFDWKTPQRGGRRFTCVRHWRLWKHYSDYFPLKLLKTHDICPSRNYILVCHPHGLFAHGWFGHFATEASGFSKIFPGITPYILTLGAFFWMPFLREYVMSTGACSVSRSSIDFLLTHKGTGNMVIVVIGGLAECRYSLPGSSTLVLKNRSGFVRMALQHGVPLIPAYAFGETDLYDQHIFTPGGFVNRFQKWFQSMVHIYPCAFYGRGFTKNSWGLLPYSRPVTTIVGEPLPMPKIENPSQEIVAKYHTLYIDALRKLFDQHKTKFGISETQELEII | – | – | – | – | DGAT Activity [3]: 11.4 +/− 3.4 pmol/min/mg protein; AWAT Activity [4, 5]: 1232 pmol/min/mg; AWAT Activity [4, 6]: 1066 pmol/min/mg protein and 1066 +/− 18.6 pmol/min/mg protein |
| DGAT2: human diacylglycerol acyltransferase 2, expressed in TG-null yeast; microsomes assayed (protein, UniProt Q96PD7 1-388, looked up, yeast microsomes, human diacylglycerol acyltransferase 2, expressed in TG-null yeast; microsomes assayed) Diacylglycerol …: MKTLIAAYSGVLRGERQAEADRSQRSHGGPALSREGSGRWGTGSSILSALQDLFSVTWLNRSKVEKQLQVISVLQWVLSFLVLGVACSAILMYIFCTDCWLIAVLYFTWLVFDWNTPKKGGRRSQWVRNWAVWRYFRDYFPIQLVKTHNLLTTRNYIFGYHPHGIMGLGAFCNFSTEATEVSKKFPGIRPYLATLAGNFRMPVLREYLMSGGICPVSRDTIDYLLSKNGSGNAIIIVVGGAAESLSSMPGKNAVTLRNRKGFVKLALRHGADLVPIYSFGENEVYKQVIFEEGSWGRWVQKKFQKYIGFAPCIFHGRGLFSSDTWGLVPYSKPITTVVGEPITIPKLEHPTQQDIDLYHTMYMEALVKLFDKHKTKFGLPETEVLEVN | – | – | – | – | DGAT Activity [3]: 65.4 pmol/min/mg protein and 65.4 +/− 3.4 pmol/min/mg protein; AWAT Activity [4, 6]: −11.5 +/− 1.3 pmol/min/mg protein |
